Measured values: paper PMC4501119, “Cholestenoic acid, an endogenous cholesterol metabolite, is a potent γ-secretase modulator” (Molecular Neurodegeneration, 2015)

Legend:
[1] = system: Aβ42 in CHO-2B7 cells (CHO cells stably overexpressing APP695); test: Cell-based Aβ sandwich ELISA of conditioned media from CHO-2B7 cells treated 16 h; parameters: species or system Chinese hamster
Method: (§1) Chinese hamster ovary (CHO) cells stably overexpressing APP695 (CHO-2B7 cells) were grown in Ham’s F-12 medium (Life Technologies) supplemented with 10 % fetal bovine serum and 100 units/ml of penicillin and 100 μg/ml streptomycin. Cells were grown at 37 °C in a humidified atmosphere containing 5 % CO2 in tissue culture plates (Costar). The cells were harvested at confluence and then utilized for biochemical analyses. Compounds were dissolved in dimethyl sulfoxide (DMSO) and screened in CHO-2B7 cells. The cells were incubated for 16 h in the presence of the compound diluted into OptiMEM-reduced serum medium (Life Technologies, Carlsbad, CA, USA) containing 1 % fetal bovine serum.
Monoclonal antibodies to Aβ were generated by the Mayo Clinic Immunology Core facilities (Jacksonville, FL, USA). Ab5 recognizes an epitope in the amino terminus of Aβ (Aβ1-16), recognizes both monomeric and aggregated Aβ, and is human specific. […] Ab 2.1.3 was raised against Aβ35-42 and is specific for Aβx-42. […] Total Aβ level was determined by capture with Ab5 and detected with horseradish peroxidase (HRP)-conjugated 4G8 (a monoclonal antibody against Aβ17-24; Covance, Waltham, MA, USA) with the other Aβ peptides detected with HRP-conjugated Ab5. For the cell-free assay and measuring mouse endogenous Aβ, HRP-conjugated 4G8 was used as the secondary detection antibody. Aβ standards (Bachem, King of Prussia, PA, USA) were prepared by dissolving in hexafluoroisopropanol (HFIP) at 1 mg/ml with sonication, dried under nitrogen, resuspended at 2 mg/ml HFIP, sonicated again and dried under nitrogen. The resulting Aβ was resuspended in 0.01 % ammonium hydroxide, portioned into aliquots in EC buffer, and frozen at −80 °C.

[2] = system: Aβ peptides in CHO-2B7 cells; test: IP/MS (MALDI-TOF) Aβ profile of CHO-2B7 conditioned media; assay type: cell-based, Chinese hamster; conditions: 3 μM, vs DMSO control
Method: as §1
Conditioned media from the CHO-2B7 cells and the samples prepared from in vitro γ-secretase studies were used to analyze Aβ and AICD profiles using matrix-assisted laser desorption/ionization time of flight (MALDI-TOF) mass spectrometry analysis. The secreted Aβ peptides were analyzed as previously described with the following modifications. Briefly, the Aβ peptides were immunoprecipitated using Ab5 recognizing the Aβ1-16 epitope and sheep anti-mouse IgG magnetic Dynabeads (Life Technologies, catalog no. 11201D) and the AICD fragments were captured using anti-Flag M2 magnetic beads (Sigma). […] Samples were analyzed using a Bruker Microflex LRF-MALDI-TOF mass spectrometer.

[3] = system: endogenous mouse Aβ (mAβ) in primary neuron-glia cultures; test: Primary mixed neuron-glia culture, endogenous mouse Aβ ELISA; assay type: cell-based
Method: Primary mixed neuron-glia cultures were prepared from postnatal day 0 (P0) C3HBL/6 mouse brains (Harlan Labs). Cerebral cortices were dissected from P0 mouse brains and were dissociated in 2 mg/ml papain (Worthington) and 50 μg/mL DNAse I (Sigma) at 37 °C for 20 min. They were then washed three times in sterile Hank’s balanced salt solution (HBSS) to inactivate the papain and switched to 5 % fetal bovine serume (HyClone) in Neurobasal-A growth media (Gibco), which includes 0.5 mM L-glutamine (Gibco), 0.5 mM GlutaMax (Life Technologies), 0.01 % antibiotic-antimycotic (Gibco), and 0.02 % SM1 supplement (Stemcell). The tissue mixture was then triturated three times using a 5 mL pipette followed by a Pasteur pipette, and strained through a 70 μm cell strainer. The cell mixture was then centrifuged at 200xg for 3 min, and re-suspended in fresh Neurobasal-A media. They were then plated onto poly-D-lysine coated 96well plates at 100,000 cells/well. Cells were maintained in the Neurobasal-A growth media mentioned above without fetal bovine serum (FBS) at 37 °C in a humidified 5 % CO2 chamber.
Monoclonal antibodies to Aβ were generated by the Mayo Clinic Immunology Core facilities (Jacksonville, FL, USA). Ab5 recognizes an epitope in the amino terminus of Aβ (Aβ1-16), recognizes both monomeric and aggregated Aβ, and is human specific. […] Ab 2.1.3 was raised against Aβ35-42 and is specific for Aβx-42. […] For cell-based screens, Aβ was captured from conditioned medium with either Ab5, Ab38, Ab13.1.1, or Ab2.1.3 (coated at 10-50 μg/ml in EC buffer: 5 mM NaH2PO4-H2O, 20 mM Na2HPO4, 400 mM NaCl, 2.5 mM EDTA-full name, 151.5 μM BSA, 813 μM CHAPS, and 7.7 mM NaN3) on Immulon 4HBX Flat-Bottom Microfilter 96-well plates (Thermo Scientific, Waltham, MA, USA). Total Aβ level was determined by capture with Ab5 and detected with horseradish peroxidase (HRP)-conjugated 4G8 (a monoclonal antibody against Aβ17-24; Covance, Waltham, MA, USA) with the other Aβ peptides detected with HRP-conjugated Ab5. For the cell-free assay and measuring mouse endogenous Aβ, HRP-conjugated 4G8 was used as the secondary detection antibody. Aβ standards (Bachem, King of Prussia, PA, USA) were prepared by dissolving in hexafluoroisopropanol (HFIP) at 1 mg/ml with sonication, dried under nitrogen, resuspended at 2 mg/ml HFIP, sonicated again and dried under nitrogen. The resulting Aβ was resuspended in 0.01 % ammonium hydroxide, portioned into aliquots in EC buffer, and frozen at −80 °C. Following these steps, the Aβ is monomeric, as determined by size-exclusion chromatography.

[4] = system: primary mouse motor neuron; parameters: method as in PMID 25271621; conditions: cited from earlier work
[5] = CHO-2B7 cells, dose response, ELISA

## CC(CCC[C@@H](C)C(=O)O)[C@H]1CCC2C3CC=C4C[C@@H](O)CC[C@]4(C)C3CC[C@@]21C (stereo partly drawn) [Cmpd 2a, 25(R)-cholestenoic acid]
[1]; [5]
  Aβ38 level: increased
  total Aβ level: without alterations
[1]; Cricetulus griseus, CHO-2B7, 16 h, lowering Aβ42, CHO-2B7 cells, 16 h, ELISA
  EC50: ~250 nM
[1]; Cricetulus griseus, decreasing Aβ42, CHO-2B7 cells
  EC90: 3000 nM
[2]
  Aβ spectra by mass spectrometry: increased Aβ38 peak and decreased Aβ42 peak with no significant changes in Aβ40 peak
[3]; 3 μM
  decrease of mAβ42 production: ~ 60%
[3]; 3 μM and 10 μM
  Aβ42:Aβ38 ratio: significant decrease
[3]; 10 μM
  Aβ38 production: increased
  decrease of mAβ42 production: ~ 75%
[4]
  toxicity to primary mouse motor neuron in cultures: toxic
